US10660898B2, “Benzimidazole derivatives as PI3 kinase inhibitors” (GLAXOSMITHKLINE LLC, priority 2010, dated 2020)

Legend:
Test in all cases: Anchorage independent soft agar tumor growth assay
Assay type in all cases: cell-based
SW1088 = SW1088 CNS glioblastoma, PTEN Loss, No protein
Procedure: (§1) Cellular Assays—Cell Growth Inhibition Assay in PTEN Wild-Type or PTEN Deficient Tumor Cell Lines Twenty-two Phosphatase and Tensin Homolog (PTEN) wild-type or PTEN deficient tumor cell lines were cultured generally according to instructions supplied by cell culture supplier American Type Culture Collection, Manassas, Va., with 10% fetal bovine serum at 5% CO2 and 37° C. Cells were seeded into either a T-75 or a T-175 flask 3-4 days prior to 96-well assay plating such that the flasks were approximately 70-80% confluent of the time of harvest. Cells were harvested using 0.25% trypsin-EDTA (Invitrogen #25200056). Trypan Blue exclusion staining was used to determine cell number. Viable cells were plated in clear, flat bottom 96-well plates (BD #353075) under anchorage independent conditions at 2,000-10,000 cells per well depending on the cell line. To generate anchorage independent growth conditions, a 5% agar stock solution in water was made and autoclaved to melt and sterilize. From the 5% agar solution, a 0.6% agar/media+10% fetal bovine serum (FBS) solution was made to generate a bottom agar layer in the plates to prevent cell attachment. Seventy five microliters per well of the 0.6% agar-media solution was added to the plates. After solidification, a cell solution of 266,870 to 1, 334,022 cells (depending on the cell line) in 10 ml of 0.3% agar/media+10% FBS was made and 75 μl of the cell/media/agar suspension was added to the plates. After the cell layer solidified, 50 μl of media+10% FBS was added to the top of the cells. A 0.3% Brij 35 (Sigma B4184) solution in media+10% FBS was added to column 12 as a background subtraction control. The cells were incubated overnight at 5% CO2 and 37° C. The next day one plate of cells was processed at the time of compound addition to quantify the starting number of cells (T=0 or T0). […] Three hundred microliters of media was added to the compound dilutions. Ten microliters per well of the serial dilutions was added to the cells and the plates incubated for 6 days at 5% CO2 and 37° C. […] Following the 6-day incubation, 20 μl of Alamar Blue (Invitrogen # DAL1100) was added to the cells, incubated at 5% CO2 and 37° C. for 6 hours and the plates read on a Spectramax (Gemini EM) at 530 nm (excitation) and 590 nm (emission) with the auto cut-off disabled. For analysis of cell growth inhibition dose response curves, the data was plotted as the percent of the DMSO-treated control samples (DMSO samples set to 100%). […] Values from wells containing 0.3% Brij 35 (under anchorage independent conditions) were subtracted from all samples for background correction.

LOXIMVI = LOXIMVI skin melanoma, PTEN Wild-type, Protein
Procedure: as §1

MDA-MB-468 = MDA-MB-468 breast carcinoma, PTEN p.?, L70Fs*7, No protein
Procedure: as §1

HCC1395 = HCC1395 breast carcinoma, PTEN p.N212fs*3, No protein
Procedure: as §1

C32 = C32 skin melanoma, PTEN p.55fs*, No protein
Procedure: as §1

UACC-62 = UACC-62 skin melanoma, PTEN p.P248fs*5, No protein
Procedure: as §1

BT474 = BT474 breast carcinoma, PTEN Wild-type, Protein
Procedure: as §1

SKOV-3 = SKOV-3 ovary adenocarcinoma, PTEN Wild-type
Procedure: as §1

HCC70 = HCC70 breast carcinoma, PTEN p.F90fs*9, No protein
Procedure: as §1

SW1783 = SW1783 CNS glioblastoma, PTEN p.R233*, No protein
Procedure: as §1

HCT-116 = HCT-116 colon carcinoma, PTEN Wild-type
Procedure: as §1

UM-UC-3 = UM-UC-3 bladder transitional, PTEN Loss, No protein
Procedure: as §1

U-87MG = U-87MG CNS glioblastoma, PTEN p.? (splice site mutation), No protein
Procedure: as §1

Colo205 = Colo205 colon carcinoma, PTEN Wild-type
Procedure: as §1

HCC19377 = HCC19377 breast carcinoma, PTEN Loss, No protein
Procedure: as §1

[1] = Homo sapiens, 144 h, 6-day incubation, Alamar Blue, read-out: Compound EC50 (nM) ± StDev
[2] = percent of DMSO-treated control

Cc1c(Cn2c(C)nc3c(C(=O)O)cc(N4CCOCC4)cc32)cccc1C(F)(F)F [Example 31, 2-methyl-1-{[2-methyl-3-(trifluoromethyl)phenol]methyl}-6-(4-morpholinyl)-1H-benzimidazole-4-carboxylic acid]
EC50 (SW1088; [1]): 12 ± 6 nM
Compound Ymin ± StDev (SW1088; [2]): 36 ± 8
EC50 (LOXIMVI; Homo sapiens, LOX IMVI, 144 h, 6-day incubation, Alamar Blue, read-out: Compound EC50 (nM) ± StDev): > 30700 nM
Compound Ymin ± StDev (LOXIMVI; [2]): >90
EC50 (MDA-MB-468; [1]): 89 ± 55 nM
Compound Ymin ± StDev (MDA-MB-468; [2]): 44 ± 6
Compound Ymin ± StDev (HCC1395; [2]): 26 ± 9
EC50 (HCC1395; [1]): 114 ± 53 nM
Compound Ymin ± StDev (C32; [2]): 20 ± 14
EC50 (C32; [1]): 8 ± 2 nM
EC50 (UACC-62; [1]): 23 ± 27 nM
Compound Ymin ± StDev (UACC-62; [2]): 76 ± 18
Compound Ymin ± StDev (BT474; [2]): 75 ± 3
EC50 (BT474; Homo sapiens, BT-474, 144 h, 6-day incubation, Alamar Blue, read-out: Compound EC50 (nM) ± StDev): 3360 ± 868 nM
EC50 (SKOV-3; Homo sapiens, SK-OV-3, 144 h, 6-day incubation, Alamar Blue, read-out: Compound EC50 (nM) ± StDev): > 30700 nM
Compound Ymin ± StDev (SKOV-3; [2]): >80
Compound Ymin ± StDev (HCC70; [2]): 27 ± 8
EC50 (HCC70; [1]): 53 ± 21 nM
EC50 (SW1783; [1]): 10 ± 3 nM
Compound Ymin ± StDev (SW1783; [2]): 69 ± 4
Compound Ymin ± StDev (HCT-116; [2]): >80
EC50 (HCT-116; [1]): > 30700 nM
EC50 (UM-UC-3; Homo sapiens, UMUC3, 144 h, 6-day incubation, Alamar Blue, read-out: Compound EC50 (nM) ± StDev): 10 ± 8 nM
Compound Ymin ± StDev (UM-UC-3; [2]): 83 ± 29
EC50 (U-87MG; [1]): 2980 ± 2770 nM
Compound Ymin ± StDev (U-87MG; [2]): 34 ± 18
Compound Ymin ± StDev (Colo205; [2]): >80
EC50 (Colo205; Homo sapiens, COLO 205, 144 h, 6-day incubation, Alamar Blue, read-out: Compound EC50 (nM) ± StDev): > 30700 nM
EC50 (HCC19377; 144 h, 6-day incubation, Alamar Blue, read-out: Compound EC50 (nM) ± StDev): 24 ± 8 nM
Compound Ymin ± StDev (HCC19377; [2]): 67 ± 8
